Laboratory results reported in US20250206724A1, “SUBSTITUTED 3-AMINO INDAZOLE DERIVATIVES AS KINASE INHIBITORS” (NERVIANO MEDICAL SCIENCES S.R.L., priority 2022, published 2025).
Where a name gives a salt, the structure may show the parent alone.

Target: T1, CDK11A (Homo sapiens, UniProt Q9UQ88)
T1 sequence (Q9UQ88 346-783): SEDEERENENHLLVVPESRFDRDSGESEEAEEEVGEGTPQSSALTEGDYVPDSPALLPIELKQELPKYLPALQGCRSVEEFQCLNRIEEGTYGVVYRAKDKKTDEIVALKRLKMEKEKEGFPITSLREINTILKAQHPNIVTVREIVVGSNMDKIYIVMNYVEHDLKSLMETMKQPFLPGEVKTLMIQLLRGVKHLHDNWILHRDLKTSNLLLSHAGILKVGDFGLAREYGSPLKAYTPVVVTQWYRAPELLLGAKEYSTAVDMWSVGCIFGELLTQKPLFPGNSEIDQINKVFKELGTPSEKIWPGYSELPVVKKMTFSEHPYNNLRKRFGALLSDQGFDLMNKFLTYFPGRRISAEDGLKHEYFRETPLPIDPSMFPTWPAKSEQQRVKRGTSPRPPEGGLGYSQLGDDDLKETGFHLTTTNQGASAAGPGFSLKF
Conditions: displacement of SNS-032-Atto590 probe (0.002 μM) from CDK11A-p58 (0.032 uM), fluorescence polarization
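Further: compound preincubated 30 min with CDK11A-p58, then probe added and polarization (mP) read 15 min later, 0% displacement is probe plus enzyme, 100% is probe alone.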

Protocol: Biochemical Kinase Inhibition Assay on CDK11 in Displacement Assay Format
Displacement Assay Format
Fluorescence Polarization (FP) experiments were carried out at room temperature using no-binding black 384-well microplates (Corning, NY), in 50 mM Tris HCl, pH 8, 10 mM MgCl2, 1 mM DTT, 1 mM CHAPS in a final volume of 60 μl. The plate reader was the Pherastar microplate reader (BMG). Polarization values were read using excitation and emission wavelengths of 590 and 675 nm, respectively. All FP values are expressed as mP units.
Compounds were 4-folds serially diluted in 100% DMSO and added directly to the CDK11A-p58 solution using the pin tool (V & P Scientific): 0.2 ul of the different compound concentrations in 20 ul of enzyme solution. After an incubation of 30 minutes at r.t., 40 ul of probe solution were added. […] The Pherastar reading is performed after 15 minutes of all components incubation. For each assay, high controls (equivalent to 0% displacement) contain probe, CDK11A-p58, and 0.33% DMSO, whereas low controls (equivalent to 100% displacement) contain only probe and 0.33% DMSO. Controls are used for the Z′ and signal to background evaluation.
The data per each molecule are analyzed by Prism SW or an internally customized version of the SW package “Assay Explorer” which provides sigmoidal fittings of the ten-dilution curves for DC50 determination using a 4 parameters logistic equation:
where x is the logarithm of the inhibitor concentration, y is the response; y starts at bottom and goes to top with a sigmoid shape.

| SMILES | DC50 |
| --- | --- |
| O=C(Nc1n[nH]c2ccc(-c3cc(Cl)ccc3Cl)cc12)C1CCCNC1 (stereo not drawn) [cpd 4, N-[5-(2,5-Dichlorophenyl)-1H-indazol-3-yl]piperidine-3-carboxamide hydrochloride] | 50 nM |
| Nc1ccc(-c2ccc3[nH]nc(NC(=O)[C@@H]4CCCNC4)c3c2)c(Cl)c1 [cpd 5, (3R)-N-[5-(4-Amino-2-chlorophenyl)-1H-indazol-3-yl]piperidine-3-carboxamide dihydrochloride] | 18 nM |
| O=C(Nc1n[nH]c2ccc(-c3ccc(O)cc3Cl)cc12)[C@@H]1CCCNC1 [cpd 6, (3R)-N-[5-(2-chloro-4-hydroxyphenyl)-1H-indazol-3-yl]piperidine-3-carboxamide hydrochloride] | 23 nM |
| Cc1ccc(-c2ccc3[nH]nc(NC(=O)[C@@H]4CCCNC4)c3c2)c(Cl)c1 [cpd 8, (3R)-N-[5-(2-Chloro-4-methylphenyl)-1H-indazol-3-yl]piperidine-3-carboxamide hydrochloride] | 125 nM |
| NC(=O)c1ccc(Cl)c(-c2ccc3[nH]nc(NC(=O)C4CCCNC4)c3c2)c1 (stereo not drawn) [cpd 9, N-[5-(5-Carbamoyl-2-chlorophenyl)-1H-indazol-3-yl]piperidine-3-carboxamide hydrochloride] | 131 nM |
| Nc1cccc(-c2ccc3[nH]nc(NC(=O)C4CCCNC4)c3c2)c1F (stereo not drawn) [cpd 11, N-[5-(3-Amino-2-fluorophenyl)-1H-indazol-3-yl]piperidine-3-carboxamide hydrochloride] | 183 nM |
| O=C(Nc1n[nH]c2ccc(-c3cc(Cl)ccc3Cl)cc12)[C@@H]1CCCNC1 [cpd 13, (3R)-N-[5-(2,5-Dichlorophenyl)-1H-indazol-3-yl]piperidine-3-carboxamide hydrochloride] | 36 nM |
| O=C(Nc1n[nH]c2ccc(-c3ccc(Cl)cc3Cl)cc12)[C@@H]1CCCNC1 [cpd 14, (3R)-N-[5-(2,4-Dichlorophenyl)-1H-indazol-3-yl]piperidine-3-carboxamide hydrochloride] | 87 nM |
| O=C(Nc1n[nH]c2ccc(-c3cc(Cl)ccc3C(F)(F)F)cc12)C1CCCNC1 (stereo not drawn) [cpd 15, N-{5-[5-Chloro-2-(trifluoromethyl)phenyl]-1H-indazol-3-yl}piperidine-3-carboxamide trifluoroacetate] | 130 nM |
| CC(=O)c1ccc(F)c(-c2ccc3[nH]nc(NC(=O)C4CCCNC4)c3c2)c1 (stereo not drawn) [cpd 16, N-[5-(5-Acetyl-2-fluorophenyl)-1H-indazol-3-yl]piperidine-3-carboxamide hydrochloride] | 72 nM |
| COc1ccc(Cl)c(-c2ccc3[nH]nc(NC(=O)C4CCCNC4)c3c2)c1 (stereo not drawn) [cpd 17, N-[5-(2-Chloro-5-methoxyphenyl)-1H-indazol-3-yl]piperidine-3-carboxamide hydrochloride] | 52 nM |
| COc1ccc(Cl)c(-c2ccc3[nH]nc(NC(=O)[C@@H]4CCCNC4)c3c2)c1 [cpd 18, (3R)-N-[5-(2-Chloro-5-methoxyphenyl)-1H-indazol-3-yl]piperidine-3-carboxamide hydrochloride] | 25 nM |
| CC(=O)c1ccc(F)c(-c2ccc3[nH]nc(NC(=O)[C@@H]4CCCNC4)c3c2)c1 [cpd 19, (3R)-N-[5-(5-Acetyl-2-fluorophenyl)-1H-indazol-3-yl]piperidine-3-carboxamide hydrochloride] | 27 nM |
| COc1ccc(F)c(-c2ccc3[nH]nc(NC(=O)[C@@H]4CCCNC4)c3c2)c1 [cpd 20, (3R)-N-[5-(2-Fluoro-5-methoxyphenyl)-1H-indazol-3-yl]piperidine-3-carboxamide hydrochloride] | 89 nM |
| O=C(Nc1n[nH]c2ccc(-c3cc(Cl)ccc3F)cc12)[C@@H]1CCCNC1 [cpd 21, (3R)-N-[5-(5-Chloro-2-fluorophenyl)-1H-indazol-3-yl]piperidine-3-carboxamide hydrochloride] | 46 nM |
| CCOc1ccc(F)c(-c2ccc3[nH]nc(NC(=O)[C@@H]4CCCNC4)c3c2)c1 [cpd 22, (3R)-N-[5-(5-Ethoxy-2-fluorophenyl)-1H-indazol-3-yl]piperidine-3-carboxamide hydrochloride] | 55 nM |
| O=C(Nc1n[nH]c2ccc(-c3cc(OC(F)(F)F)ccc3F)cc12)[C@@H]1CCCNC1 [cpd 23, (3R)-N-{5-[2-Fluoro-5-(trifluoromethoxy)phenyl]-1H-indazol-3-yl}piperidine-3-carboxamide hydrochloride] | 75 nM |
| O=C1CCC(C(=O)Nc2n[nH]c3ccc(-c4c(Cl)cccc4Cl)cc23)CN1 (stereo not drawn) [cpd 27, N-[5-(2,6-Dichlorophenyl)-1H-indazol-3-yl]-6-oxopiperidine-3-carboxamide] | 338 nM |
| COC(=O)c1ccc(Cl)c(-c2ccc3[nH]nc(NC(=O)[C@@H]4CCCNC4)c3c2)c1 [cpd 29, Methyl 4-chloro-3-(3-{[(3R)-piperidin-3-ylcarbonyl]amino}-1H-indazol-5-yl)benzoate hydrochloride] | 24 nM |
| O=C(Nc1n[nH]c2ccc(-c3ccc(F)cc3F)cc12)[C@@H]1CCCNC1 [cpd 30, (3R)-N-[5-(2,4-Difluorophenyl)-1H-indazol-3-yl]piperidine-3-carboxamide hydrochloride] | 38 nM |
| COc1ccc(-c2ccc3[nH]nc(NC(=O)[C@@H]4CCCNC4)c3c2)c(C(F)(F)F)c1 [cpd 31, (3R)-N-{5-[4-Methoxy-2-(trifluoromethyl)phenyl]-1H-indazol-3-yl}piperidine-3-carboxamide hydrochloride] | 94 nM |
| Nc1ccc(Cl)c(-c2ccc3[nH]nc(NC(=O)[C@@H]4CCCNC4)c3c2)c1 [cpd 34, (3R)-N-[5-(5-Amino-2-chlorophenyl)-1H-indazol-3-yl]piperidine-3-carboxamide dihydrochloride] | 19 nM |
| O=C(Nc1n[nH]c2ccc(-c3cc(F)ccc3F)cc12)[C@@H]1CCCNC1 [cpd 35, (3R)-N-[5-(2,5-Difluorophenyl)-1H-indazol-3-yl]piperidine-3-carboxamide hydrochloride] | 35 nM |
| Cc1ccc(-c2ccc3[nH]nc(NC(=O)[C@@H]4CCCNC4)c3c2)c(C(F)(F)F)c1 [cpd 36, (3R)-N-{5-[4-Methyl-2-(trifluoromethyl)phenyl]-1H-indazol-3-yl}piperidine-3-carboxamide hydrochloride] | 65 nM |

More lines, now with the values ahead:

| DC50 | SMILES |
| --- | --- |
| 26 nM | COC(=O)c1ccc(Cl)c(-c2ccc3[nH]nc(NC(=O)[C@@H]4CCNC4)c3c2)c1 [cpd 37, Methyl 4-chloro-3-(3-{[(3R)-pyrrolidin-3-ylcarbonyl]amino}-1H-indazol-5-yl)benzoate hydrochloride] |
| 16 nM | CC(=O)c1ccc(Cl)c(-c2ccc3[nH]nc(NC(=O)[C@@H]4CCNC4)c3c2)c1 [cpd 38, (3R)-N-[5-(5-Acetyl-2-chlorophenyl)-1H-indazol-3-yl]pyrrolidine-3-carboxamide hydrochloride] |
| 44 nM | CNC(=O)c1ccc(Cl)c(-c2ccc3[nH]nc(NC(=O)[C@@H]4CCNC4)c3c2)c1 [cpd 39, (3R)-N-{5-[2-Chloro-5-(methylcarbamoyl)phenyl]-1H-indazol-3-yl}pyrrolidine-3-carboxamide hydrochloride] |
| 45 nM | COC(=O)c1ccc(C#N)c(-c2ccc3[nH]nc(NC(=O)[C@@H]4CCCNC4)c3c2)c1 [cpd 40, Methyl 4-cyano-3-(3-{[(3R)-piperidin-3-ylcarbonyl]amino}-1H-indazol-5-yl)benzoate hydrochloride] |
| 33 nM | O=C(Nc1n[nH]c2ccc(-c3cc(O)ccc3Cl)cc12)[C@@H]1CCCNC1 [cpd 41, (3R)-N-[5-(2-Chloro-5-hydroxyphenyl)-1H-indazol-3-yl]piperidine-3-carboxamide hydrochloride] |
| 57 nM | COC(=O)c1cc(-c2ccc3[nH]nc(NC(=O)[C@@H]4CCCNC4)c3c2)c(Cl)cc1Cl [cpd 42, Methyl 2,4-dichloro-5-(3-{[(3R)-piperidin-3-ylcarbonyl]amino}-1H-indazol-5-yl)benzoate hydrochloride] |
| 19 nM | CCC(=O)c1ccc(Cl)c(-c2ccc3[nH]nc(NC(=O)[C@@H]4CCCNC4)c3c2)c1 [cpd 43, (3R)-N-[5-(2-Chloro-5-propanoylphenyl)-1H-indazol-3-yl]piperidine-3-carboxamide hydrochloride] |
| 156 nM | O=C(Nc1n[nH]c2ccc(-c3ccc(C(F)(F)F)cc3Cl)cc12)[C@@H]1CCCNC1 [cpd 44, (3R)-N-{5-[2-Chloro-4-(trifluoromethyl)phenyl]-1H-indazol-3-yl}piperidine-3-carboxamide hydrochloride] |
| 88 nM | O=C(Nc1n[nH]c2ccc(-c3ccc(Cl)cc3C(F)(F)F)cc12)[C@@H]1CCCNC1 [cpd 45, (3R)-N-{5-[4-Chloro-2-(trifluoromethyl)phenyl]-1H-indazol-3-yl}piperidine-3-carboxamide hydrochloride] |
| 37 nM | O=C(Nc1n[nH]c2ccc(-c3cc(F)ccc3C(F)(F)F)cc12)[C@@H]1CCCNC1 [cpd 46, (3R)-N-{5-[5-Fluoro-2-(trifluoromethyl)phenyl]-1H-indazol-3-yl}piperidine-3-carboxamide hydrochloride] |
| 38 nM | O=C(Nc1n[nH]c2ccc(-c3ccccc3Cl)cc12)[C@@H]1CCCNC1 [cpd 47, (3R)-N-[5-(2-Chlorophenyl)-1H-indazol-3-yl]piperidine-3-carboxamide hydrochloride] |
| 310 nM | CC(C)c1ccc(Cl)c(-c2ccc3[nH]nc(NC(=O)[C@@H]4CCCNC4)c3c2)c1 [cpd 48, (3R)-N-{5-[2-Chloro-5-(propan-2-yl)phenyl]-1H-indazol-3-yl}piperidine-3-carboxamide hydrochloride] |
